Assay results as given in patent US12371428B2 (Exelixis, Inc., priority 2019, dated 2025).

How the values were obtained:
[1] = target: KDR (phospho-KDR, VEGF165-stimulated HUVEC cells) (Homo sapiens (Human), UniProt P35968); assay: KDR autophosphorylation ELISA in HUVEC cells (Example G); assay type: cell-based; conditions: cellular activity; KDR autophosphorylation ELISA in HUVEC cells
How it was run: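 First, endothelial cells were cultured a day, then kept without serum for another day. Next came 1 h with serially diluted compound, a brief 5 min VEGF165 stimulus (100 ng/mL), rapid lysis, and ELISA detection of receptor phosphorylation relative to stimulated and non-stimulated controls.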

[2] = target: Mer (phospho-Mer, MERTK-transfected 293A cells) (Homo sapiens (Human), UniProt Q12866); assay: Mer autophosphorylation ELISA in transient transfected 293A cells (Example H); assay type: cell-based; conditions: cellular activity; Mer autophosphorylation ELISA in transient transfected 293A cells
How it was run: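 IC50 from phospho-Mer ELISA of MERTK-transfected 293A cell lysates after 1 h treatment with serially diluted compound in serum-free medium.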

Sequence of Mer (phospho-Mer, MERTK-transfected 293A cells) (Q12866 21-999): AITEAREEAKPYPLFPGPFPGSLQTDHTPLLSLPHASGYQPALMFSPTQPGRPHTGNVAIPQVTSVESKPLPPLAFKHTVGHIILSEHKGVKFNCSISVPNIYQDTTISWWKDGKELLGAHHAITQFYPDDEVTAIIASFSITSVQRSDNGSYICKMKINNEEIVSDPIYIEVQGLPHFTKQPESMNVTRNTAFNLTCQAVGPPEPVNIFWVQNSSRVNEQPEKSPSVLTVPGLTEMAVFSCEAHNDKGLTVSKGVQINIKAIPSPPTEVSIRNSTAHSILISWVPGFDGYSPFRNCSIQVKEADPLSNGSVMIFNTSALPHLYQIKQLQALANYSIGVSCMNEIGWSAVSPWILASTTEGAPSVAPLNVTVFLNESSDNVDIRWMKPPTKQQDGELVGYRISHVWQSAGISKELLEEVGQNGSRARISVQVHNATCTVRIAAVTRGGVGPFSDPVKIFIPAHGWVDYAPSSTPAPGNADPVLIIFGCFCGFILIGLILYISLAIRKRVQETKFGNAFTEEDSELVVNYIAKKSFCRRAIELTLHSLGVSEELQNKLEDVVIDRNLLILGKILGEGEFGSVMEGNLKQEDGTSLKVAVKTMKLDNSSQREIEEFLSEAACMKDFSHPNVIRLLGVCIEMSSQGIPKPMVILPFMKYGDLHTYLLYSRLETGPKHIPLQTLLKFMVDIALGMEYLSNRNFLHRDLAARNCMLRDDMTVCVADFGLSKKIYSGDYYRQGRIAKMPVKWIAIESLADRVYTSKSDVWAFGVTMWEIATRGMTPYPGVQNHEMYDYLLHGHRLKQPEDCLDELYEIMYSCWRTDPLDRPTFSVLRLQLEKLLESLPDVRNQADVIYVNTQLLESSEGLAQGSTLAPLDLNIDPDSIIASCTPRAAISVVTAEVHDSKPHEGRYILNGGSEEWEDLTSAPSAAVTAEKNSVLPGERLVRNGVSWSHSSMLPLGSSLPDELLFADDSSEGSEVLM
Sequence of KDR (phospho-KDR, VEGF165-stimulated HUVEC cells) (P35968 20-1356): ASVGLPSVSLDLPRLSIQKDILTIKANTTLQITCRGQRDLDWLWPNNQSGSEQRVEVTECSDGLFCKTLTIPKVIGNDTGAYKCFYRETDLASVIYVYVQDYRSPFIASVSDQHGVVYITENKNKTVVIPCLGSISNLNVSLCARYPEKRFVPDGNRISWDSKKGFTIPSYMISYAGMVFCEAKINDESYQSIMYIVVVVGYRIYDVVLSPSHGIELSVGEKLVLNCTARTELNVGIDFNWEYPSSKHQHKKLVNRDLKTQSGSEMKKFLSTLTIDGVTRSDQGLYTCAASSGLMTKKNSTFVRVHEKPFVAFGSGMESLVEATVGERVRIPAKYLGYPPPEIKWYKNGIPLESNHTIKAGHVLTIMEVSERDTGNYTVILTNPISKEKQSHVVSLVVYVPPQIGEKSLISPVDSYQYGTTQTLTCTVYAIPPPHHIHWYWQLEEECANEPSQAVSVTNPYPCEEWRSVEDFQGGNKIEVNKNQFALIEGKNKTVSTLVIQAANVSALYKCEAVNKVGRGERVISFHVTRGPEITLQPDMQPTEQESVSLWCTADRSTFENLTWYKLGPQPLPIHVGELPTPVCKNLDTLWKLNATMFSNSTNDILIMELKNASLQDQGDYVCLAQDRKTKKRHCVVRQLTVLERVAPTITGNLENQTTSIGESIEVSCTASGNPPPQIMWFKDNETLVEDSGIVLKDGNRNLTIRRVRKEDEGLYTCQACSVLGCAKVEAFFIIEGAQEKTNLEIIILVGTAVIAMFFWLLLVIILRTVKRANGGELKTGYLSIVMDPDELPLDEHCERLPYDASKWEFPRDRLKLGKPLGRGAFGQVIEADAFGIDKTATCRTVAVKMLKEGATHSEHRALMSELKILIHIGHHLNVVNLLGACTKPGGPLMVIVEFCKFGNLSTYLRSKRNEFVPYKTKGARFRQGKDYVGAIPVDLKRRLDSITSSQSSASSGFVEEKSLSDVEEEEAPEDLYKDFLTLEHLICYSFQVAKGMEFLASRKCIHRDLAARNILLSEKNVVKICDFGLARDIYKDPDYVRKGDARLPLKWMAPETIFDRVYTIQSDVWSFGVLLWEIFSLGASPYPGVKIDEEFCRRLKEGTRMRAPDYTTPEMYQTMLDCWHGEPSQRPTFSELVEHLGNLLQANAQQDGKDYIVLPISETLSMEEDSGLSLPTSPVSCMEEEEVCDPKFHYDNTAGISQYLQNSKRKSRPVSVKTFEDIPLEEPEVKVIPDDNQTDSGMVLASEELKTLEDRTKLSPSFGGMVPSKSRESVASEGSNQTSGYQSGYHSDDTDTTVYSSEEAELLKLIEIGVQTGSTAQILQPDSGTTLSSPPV

IC50 [1] [nM] | IC50 [2] [nM] | Compound
> 300 | < 100 | Cc1cc(F)ccc1-c1c(C)n(C)cc(C(=O)Nc2ccc(Oc3ccnc4cc(C)c(F)nc34)c(F)c2)c1=O [Compound 429, N-[3-fluoro-4-[(6-fluoro-7-methyl-1,5-naphthyridin-4-yl)oxy]phenyl]-5-(4-fluoro-2-methylphenyl)-1,6-dimethyl-4-oxopyridine-3-carboxamide]
< 100 | < 100 | COc1cc2nccc(Oc3ccc(NC(=O)c4cn(C)c(C)c(-c5ccc(F)cc5)c4=O)cc3)c2nc1OC [Compound 65, N-[4-[(6,7-Dimethoxy-1,5-naphthyridin-4-yl)oxy]phenyl]-5-(4-fluorophenyl)-1,6-dimethyl-4-oxopyridine-3-carboxamide]
< 100 | < 100 | COCCOc1nc2c(Oc3ccc(NC(=O)c4cnc(C)c(-c5ccc(F)cc5)c4O)cc3F)ccnc2cc1C [Compound 436, N-[3-fluoro-4-[[6-(2-methoxyethoxy)-7-methyl-1,5-naphthyridin-4-yl]oxy]phenyl]-5-(4-fluorophenyl)-4-hydroxy-6-methylpyridine-3-carboxamide]
< 100 | < 100 | COc1cc2nccc(Oc3ccc(NC(=O)c4cnc(CO)c(-c5ccc(F)cc5)c4O)cc3F)c2nc1OC [Compound 71, N-[4-[(6,7-Dimethoxy-1,5-naphthyridin-4-yl)oxy]-3-fluorophenyl]-5-(4-fluorophenyl)-4-hydroxy-6-(hydroxymethyl)pyridine-3-carboxamide]
< 100 | < 100 | COc1cnc2c(Oc3ccc(NC(=O)c4c(C)ncc(-c5ccc(F)cc5)c4O)cc3F)ccnc2c1 [Compound 80, N-[3-Fluoro-4-[(7-methoxy-1,5-naphthyridin-4-yl)oxy]phenyl]-5-(4-fluorophenyl)-4-hydroxy-2-methylpyridine-3-carboxamide]
< 100 | < 100 | CCc1cnc2c(Oc3ccc(NC(=O)c4cnc(C)c(-c5ccc(F)cc5C)c4O)cc3F)ccnc2c1 [Compound 419, N-[4-[(7-ethyl-1,5-naphthyridin-4-yl)oxy]-3-fluorophenyl]-5-(4-fluoro-2-methylphenyl)-4-hydroxy-6-methylpyridine-3-carboxamide]
< 100 | < 100 | COc1cc2nccc(Oc3ccc(NC(=O)c4c5n(cc(-c6ccc(F)cc6)c4=O)CCC5)cc3F)c2cc1OC [Compound 409, N-[4-(6,7-dimethoxyquinolin-4-yl)oxy-3-fluorophenyl]-6-(4-fluorophenyl)-7-oxo-2,3-dihydro-1H-indolizine-8-carboxamide]
< 100 | < 100 | COc1ccc2nccc(Oc3ccc(NC(=O)c4ccc(C)n(-c5ccc(F)cc5)c4=O)cc3F)c2n1 [Compound 84, N-[3-Fluoro-4-[(6-methoxy-1,5-naphthyridin-4-yl)oxy]phenyl]-1-(4-fluorophenyl)-6-methyl-2-oxopyridine-3-carboxamide]
> 300 | < 100 | COc1cc2nccc(Oc3ccc(NC(=O)c4cn(-c5cnn(C(F)F)c5)cc(-c5ccc(F)cc5)c4=O)cc3F)c2nc1OC [Compound 60, 1-[1-(Difluoromethyl)pyrazol-4-yl]-N-[4-[(6,7-dimethoxy-1,5-naphthyridin-4-yl)oxy]-3-fluorophenyl]-5-(4-fluorophenyl)-4-oxopyridine-3-carboxamide]
< 100 | < 100 | COc1cc2nccc(Oc3ccc(NC(=O)c4cnc(C)c(-c5ccc(F)cc5)c4O)cc3F)c2nc1OC(C)C [Compound 415, N-[3-fluoro-4-[(7-methoxy-6-propan-2-yloxy-1,5-naphthyridin-4-yl)oxy]phenyl]-5-(4-fluorophenyl)-4-hydroxy-6-methylpyridine-3-carboxamide]
< 100 | < 100 | CCn1cc(C(=O)Nc2ccc(Oc3ccnc4cc(OC)c(OC)nc34)c(F)c2)c(=O)c(-c2ccc(F)cc2)c1C [Compound 63, N-[4-[(6,7-Dimethoxy-1,5-naphthyridin-4-yl)oxy]-3-fluorophenyl]-1-ethyl-5-(4-fluorophenyl)-6-methyl-4-oxopyridine-3-carboxamide]
> 300 | < 100 | COc1cc2nccc(Oc3ccc(NC(=O)c4cn(C)c(C#N)c(-c5ccc(F)cc5)c4=O)cc3F)c2nc1OC [Compound 77, 6-Cyano-N-[4-[(6,7-dimethoxy-1,5-naphthyridin-4-yl)oxy]-3-fluorophenyl]-5-(4-fluorophenyl)-1-methyl-4-oxopyridine-3-carboxamide]
< 100 | < 100 | COCCOc1nc2c(Oc3ccc(NC(=O)c4cnc(C)c(-c5ccc(F)cc5)c4O)cc3)ccnc2cc1C [Compound 437, 5-(4-fluorophenyl)-4-hydroxy-N-[4-[[6-(2-methoxyethoxy)-7-methyl-1,5-naphthyridin-4-yl]oxy]phenyl]-6-methylpyridine-3-carboxamide]
< 100 | < 100 | C=Cc1cc2nccc(Oc3ccc(NC(=O)c4cnc(C)c(-c5ccc(F)cc5C)c4O)cc3F)c2nc1OC [Compound 423, N-[4-[(7-ethenyl-6-methoxy-1,5-naphthyridin-4-yl)oxy]-3-fluorophenyl]-5-(4-fluoro-2-methylphenyl)-4-hydroxy-6-methylpyridine-3-carboxamide]
> 300 | < 100 | COc1cc2nccc(Oc3ccc(NC(=O)c4cn(C5(C(F)(F)F)CC5)cc(-c5ccc(F)cc5)c4=O)cc3F)c2nc1OC [Compound 59, N-[4-[(6,7-Dimethoxy-1,5-naphthyridin-4-yl)oxy]-3-fluorophenyl]-5-(4-fluorophenyl)-4-oxo-1-[1-(trifluoromethyl)cyclopropyl]pyridine-3-carboxamide]
< 100 | < 100 | COc1cc2nccc(Oc3ccc(NC(=O)c4cn(C)c(C)c(-c5ccc(F)cc5C)c4=O)cc3F)c2nc1OC [Compound 75, N-[4-[(6,7-Dimethoxy-1,5-naphthyridin-4-yl)oxy]-3-fluorophenyl]-5-(4-fluoro-2-methylphenyl)-1,6-dimethyl-4-oxopyridine-3-carboxamide]
100 to 300 | 100 to 300 | COc1cnc2c(Oc3ccc(NC(=O)c4cnc(C)c(-c5c(C)cc(F)cc5C)c4O)cc3F)ccnc2c1 [Compound 417, 5-(4-fluoro-2,6-dimethylphenyl)-N-[3-fluoro-4-[(7-methoxy-1,5-naphthyridin-4-yl)oxy]phenyl]-4-hydroxy-6-methylpyridine-3-carboxamide]
100 to 300 | < 100 | CCOc1c(-c2ccc(F)cc2)cnc(C)c1C(=O)Nc1ccc(Oc2ccnc3cc(OC)c(OC)nc23)c(F)c1 [Compound 403, N-[4-[(6,7-dimethoxy-1,5-naphthyridin-4-yl)oxy]-3-fluorophenyl]-4-ethoxy-5-(4-fluorophenyl)-2-methylpyridine-3-carboxamide]
< 100 | < 100 | CCc1cc2nccc(Oc3ccc(NC(=O)c4cnc(C)c(-c5ccc(F)cc5)c4O)cc3F)c2nc1OC [Compound 420, N-[4-[(7-ethyl-6-methoxy-1,5-naphthyridin-4-yl)oxy]-3-fluorophenyl]-5-(4-fluorophenyl)-4-hydroxy-6-methylpyridine-3-carboxamide]
< 100 | < 100 | COc1cc2nccc(Oc3ccc(NC(=O)c4ncnc(-c5ccc(F)cc5)c4O)cc3F)c2nc1OC [Compound 96, N-[4-[(6,7-Dimethoxy-1,5-naphthyridin-4-yl)oxy]-3-fluorophenyl]-6-(4-fluorophenyl)-5-hydroxypyrimidine-4-carboxamide]
